Measurements from patent US10758534B2 (Vertex Pharmaceuticals Incorporated, priority 2014, dated 2020).

Target: T1, F508del (Homo sapiens, UniProt P13569, DEL508-508)
T1 construct: expressed in transfected cells
Assay: Protocol 1: membrane potential optical assay (FLIPR III, voltage sensing dye), identification of potentiator compounds
Type: cell-based
Details: Table 3, compounds of Table 1
Procedure, shortened: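 NIH3T3 F508del cells, 27° C × 24 hrs; compound/DMSO pretreat → redistribution dye load → single forskolin addition with Cl⁻ gradient (gluconate-substituted bath, HEPES pH 7.4). FLIPR III membrane-potential fluorescence read.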

T1 sequence (P13569 with tags, fused parts or gaps DEL508-508): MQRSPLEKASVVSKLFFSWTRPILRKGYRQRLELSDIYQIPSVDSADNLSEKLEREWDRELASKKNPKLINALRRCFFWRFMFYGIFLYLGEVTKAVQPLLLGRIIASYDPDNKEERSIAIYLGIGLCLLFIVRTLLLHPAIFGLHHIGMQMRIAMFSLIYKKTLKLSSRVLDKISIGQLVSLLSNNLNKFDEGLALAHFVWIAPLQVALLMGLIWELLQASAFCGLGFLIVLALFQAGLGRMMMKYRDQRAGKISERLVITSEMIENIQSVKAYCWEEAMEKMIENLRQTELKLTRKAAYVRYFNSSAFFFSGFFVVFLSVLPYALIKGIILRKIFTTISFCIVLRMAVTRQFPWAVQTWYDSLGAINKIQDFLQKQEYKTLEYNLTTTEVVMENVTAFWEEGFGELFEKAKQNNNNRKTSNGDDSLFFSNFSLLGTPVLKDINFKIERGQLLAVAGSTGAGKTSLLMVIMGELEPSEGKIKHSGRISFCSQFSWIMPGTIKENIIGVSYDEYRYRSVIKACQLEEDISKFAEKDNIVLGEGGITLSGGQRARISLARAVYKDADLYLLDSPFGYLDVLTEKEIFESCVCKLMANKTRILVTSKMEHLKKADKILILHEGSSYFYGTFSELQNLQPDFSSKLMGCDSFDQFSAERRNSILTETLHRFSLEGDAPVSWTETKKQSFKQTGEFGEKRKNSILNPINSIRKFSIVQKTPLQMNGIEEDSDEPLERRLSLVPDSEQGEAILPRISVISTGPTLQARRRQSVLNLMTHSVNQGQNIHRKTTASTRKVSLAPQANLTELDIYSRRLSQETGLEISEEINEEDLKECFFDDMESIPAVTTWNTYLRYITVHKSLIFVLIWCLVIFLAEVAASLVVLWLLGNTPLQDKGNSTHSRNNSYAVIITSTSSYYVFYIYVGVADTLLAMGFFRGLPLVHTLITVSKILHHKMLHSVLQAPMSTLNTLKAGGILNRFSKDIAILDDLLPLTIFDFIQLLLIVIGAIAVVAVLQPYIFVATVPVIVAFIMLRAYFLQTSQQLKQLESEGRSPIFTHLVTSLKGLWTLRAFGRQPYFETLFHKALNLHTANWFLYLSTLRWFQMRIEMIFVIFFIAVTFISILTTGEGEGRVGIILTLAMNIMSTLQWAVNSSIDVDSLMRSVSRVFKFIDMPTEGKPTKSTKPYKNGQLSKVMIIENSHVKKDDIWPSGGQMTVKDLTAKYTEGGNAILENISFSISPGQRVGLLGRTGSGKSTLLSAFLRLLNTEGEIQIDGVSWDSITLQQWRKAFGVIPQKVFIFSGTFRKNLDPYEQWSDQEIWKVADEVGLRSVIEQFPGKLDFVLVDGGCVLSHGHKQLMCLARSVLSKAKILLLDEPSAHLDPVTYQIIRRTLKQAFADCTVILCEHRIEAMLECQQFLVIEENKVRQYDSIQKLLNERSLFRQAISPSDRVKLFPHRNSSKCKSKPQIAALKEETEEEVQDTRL

**Q.** How did the EC30 turn out when `CC1(C)CN(c2nc(C(F)(F)F)ccc2C(=O)NS(=O)(=O)c2cccc(N)n2)C(C)(C)C1` [Compound 1635, N-[(6-amino-2-pyridyl)sulfonyl]-2-(2,2,4,4-tetramethylpyrrolidin-1-yl)-6-(trifluoromethyl)pyridine-3-carboxamide] was run?
**A.** Its EC30 is “+++ (“+++” means <3 uM)”.

**Q.** Which EC30 does the source give for `CC(C)CCOc1ccc(-c2ccc(C(=O)NS(=O)(=O)c3cccc(N)n3)c(N3CC(C)CC3(C)C)n2)cn1` (stereo not drawn) [Compound 848, N-[(6-amino-2-pyridyl)sulfonyl]-6-(6-isopentyloxy-3-pyridyl)-2-(2,2,4-trimethylpyrrolidin-1-yl)pyridine-3-carboxamide] here?
**A.** The EC30 was “+++ (“+++” means <3 uM)”.

**Q.** For `COC[C@H]1CCCN1c1nc(-c2cc(F)cc(OCC(C)C)c2)ccc1C(=O)NS(=O)(=O)c1cccc(N)n1` [Compound 1149, N-[(6-amino-2-pyridyl)sulfonyl]-6-(3-fluoro-5-isobutoxy-phenyl)-2-[(2R)-2-(methoxymethyl)pyrrolidin-1-yl]pyridine-3-carboxamide], which EC30 is on record?
**A.** The EC30 was “+++ (“+++” means <3 uM)”.

**Q.** With `CC(CO)COc1cc(F)cc(-c2ccc(C(=O)NS(=O)(=O)c3ccccc3)c(N3C[C@@H](C)CC3(C)C)n2)c1` (stereo partly drawn) [Compound 1515, N-(benzenesulfonyl)-6-[3-fluoro-5-(3-hydroxy-2-methyl-propoxy)phenyl]-2-[(4S)-2,2,4-trimethylpyrrolidin-1-yl]pyridine-3-carboxamide] as the compound, how does the EC30 read?
**A.** The EC30 was “+++ (“+++” means <3 uM)”.

**Q.** With `C#CCOc1cccc(S(=O)(=O)NC(=O)c2cccnc2N2CC(C)CC2(C)C)n1` (stereo not drawn) [Compound 1753, N-[(6-prop-2-ynoxy-2-pyridyl)sulfonyl]-2-(2,2,4-trimethylpyrrolidin-1-yl)pyridine-3-carboxamide] as the compound, how does the EC30 read?
**A.** The EC30 was “++ (“++” means between 3 uM and 10 uM)”.

**Q.** Which EC30 does the source give for `CCNc1ccc(C(=O)NS(=O)(=O)c2cccc(N)n2)c(Oc2c(C)cc(C)cc2C)n1` [Compound 1128, N-[(6-amino-2-pyridyl)sulfonyl]-6-(ethylamino)-2-(2,4,6-trimethylphenoxy)pyridine-3-carboxamide] here?
**A.** The EC30 was “++ (“++” means between 3 uM and 10 uM)”.

**Q.** For `CC(C)COc1cc(F)cc(-c2ccc(C(=O)NS(=O)(=O)c3cccc(N)n3)c(N3CCCCC3(C)C)n2)c1` [Compound 1004, N-[(6-amino-2-pyridyl)sulfonyl]-2-(2,2-dimethyl-1-piperidyl)-6-(3-fluoro-5-isobutoxy-phenyl)pyridine-3-carboxamide], which EC30 is on record?
**A.** The EC30 was “+++ (“+++” means <3 uM)”.

**Q.** Which EC30 does the source give for `CC1CN(c2nc(C(C)(C)C)c(-c3cnn(C)c3)cc2C(=O)NS(=O)(=O)c2cccc(N)n2)C(C)(C)C1` (stereo not drawn) [Compound 1441, N-[(6-amino-2-pyridyl)sulfonyl]-6-tert-butyl-5-(1-methylpyrazol-4-yl)-2-(2,2,4-trimethylpyrrolidin-1-yl)pyridine-3-carboxamide] here?
**A.** Its EC30 is “++ (“++” means between 3 uM and 10 uM)”.

**Q.** With `CC(C)COc1cc(F)cc(-c2ccc(C(=O)NS(=O)(=O)c3cccc(CO)n3)c(N3CCC(C)CC3)n2)c1` [Compound 1340, 6-(3-fluoro-5-isobutoxy-phenyl)-N-[[6-(hydroxymethyl)-2-pyridyl]sulfonyl]-2-(4-methyl-1-piperidyl)pyridine-3-carboxamide] as the compound, how does the EC30 read?
**A.** The EC30 was “+++ (“+++” means <3 uM)”.

**Q.** `CC1CN(c2ncc(-c3cc(OC(C)C)cc(C(F)(F)F)c3)cc2C(=O)NS(=O)(=O)c2cccc(N)n2)C(C)(C)C1` (stereo not drawn) [Compound 1815, N-[(6-amino-2-pyridyl)sulfonyl]-5-[3-isopropoxy-5-(trifluoromethyl)phenyl]-2-(2,2,4-trimethylpyrrolidin-1-yl)pyridine-3-carboxamide] was tested. Which EC30 did it give?
**A.** The EC30 was “+++ (“+++” means <3 uM)”.

**Q.** How did the EC30 turn out when `Cc1ccccc1-c1cnc(N2CC(C)CC2(C)C)c(C(=O)NS(=O)(=O)c2cccc(N)n2)c1` (stereo not drawn) [Compound 1701, N-[(6-amino-2-pyridyl)sulfonyl]-5-(o-tolyl)-2-(2,2,4-trimethylpyrrolidin-1-yl)pyridine-3-carboxamide] was run?
**A.** The EC30 was “+++ (“+++” means <3 uM)”.

**Q.** For `Cc1cc(C)c(Oc2nc(-c3cc(F)cc(OC(C)C)c3)ccc2C(=O)NS(=O)(=O)c2nccnc2N)c(C)c1` [Compound 989, N-(3-aminopyrazin-2-yl)sulfonyl-6-(3-fluoro-5-isopropoxy-phenyl)-2-(2,4,6-trimethylphenoxy)pyridine-3-carboxamide], which EC30 is on record?
**A.** Its EC30 is “+++ (“+++” means <3 uM)”.

**Q.** For `CC(C)COc1cc(F)cc(-c2ccc(C(=O)NS(=O)(=O)c3cccc(N)n3)c(N3CC(C)(C)OCC3(C)C)n2)c1` [Compound 1675, N-[(6-amino-2-pyridyl)sulfonyl]-6-(3-fluoro-5-isobutoxy-phenyl)-2-(2,2,5,5-tetramethylmorpholin-4-yl)pyridine-3-carboxamide], which EC30 is on record?
**A.** The EC30 was “++ (“++” means between 3 uM and 10 uM)”.

**Q.** For `Cc1cc(C)c(Oc2nc(-c3ccc4c(c3)CCO4)ccc2C(=O)NS(=O)(=O)c2cccc(N)n2)c(C)c1` [Compound 1048], which EC30 is on record?
**A.** Its EC30 is “+++ (“+++” means <3 uM)”.

**Q.** Which EC30 does the source give for `CC1CN(c2nc(-c3ccc(OC(C)C)nc3)ccc2C(=O)NS(=O)(=O)c2cccc(N)n2)C(C)(C)C1` (stereo not drawn) [Compound 1247, N-[(6-amino-2-pyridyl)sulfonyl]-6-(6-isopropoxy-3-pyridyl)-2-(2,2,4-trimethylpyrrolidin-1-yl)pyridine-3-carboxamide] here?
**A.** Its EC30 is “+++ (“+++” means <3 uM)”.

**Q.** For `CC(C)Oc1cc(F)cc(-c2ccc(C(=O)NS(=O)(=O)c3ccn[nH]3)c(N3[C@H](C)CC[C@@H]3C)n2)c1` [Compound 1285, 2-[(2S,5R)-2,5-dimethylpyrrolidin-1-yl]-6-(3-fluoro-5-isopropoxy-phenyl)-N-(1H-pyrazol-5-ylsulfonyl)pyridine-3-carboxamide], which EC30 is on record?
**A.** Its EC30 is “+++ (“+++” means <3 uM)”.

**Q.** For `CCOc1cccc(-c2ccc(C(=O)NS(=O)(=O)c3cccc(N)n3)c(Oc3c(C)cc(C)cc3C)n2)n1` [Compound 1133, N-[(6-amino-2-pyridyl)sulfonyl]-6-(6-ethoxy-2-pyridyl)-2-(2,4,6-trimethylphenoxy)pyridine-3-carboxamide], which EC30 is on record?
**A.** The EC30 was “+++ (“+++” means <3 uM)”.

**Q.** `Cc1cc(C)c(Oc2nc(C3=CC(C)(C)OC3(C)C)ccc2C(=O)NS(=O)(=O)c2cccc(N)n2)c(C)c1` [Compound 1609, N-[(6-amino-2-pyridyl)sulfonyl]-6-(2,2,5,5-tetramethyl-3-furyl)-2-(2,4,6-trimethylphenoxy)pyridine-3-carboxamide] was tested. Which EC30 did it give?
**A.** Its EC30 is “+++ (“+++” means <3 uM)”.

**Q.** For `CC(C)Oc1ccc(-c2ccc(C(=O)NS(=O)(=O)c3cccc(N)n3)c(N3CCC4(CC3)OCc3ccccc34)n2)cn1` [Compound 818, N-[(6-amino-2-pyridyl)sulfonyl]-6-(6-isopropoxy-3-pyridyl)-2-spiro[1H-isobenzofuran-3,4′-piperidine]-1′-yl-pyridine-3-carboxamide], which EC30 is on record?
**A.** Its EC30 is “+++ (“+++” means <3 uM)”.

**Q.** `COc1cccc(OC)c1-c1ccc(C(=O)NS(=O)(=O)c2cccc(N)n2)c(Oc2c(C)cc(C)cc2C)n1` [Compound 1326, N-[(6-amino-2-pyridyl)sulfonyl]-6-(2,6-dimethoxyphenyl)-2-(2,4,6-trimethylphenoxy)pyridine-3-carboxamide] was tested. Which EC30 did it give?
**A.** Its EC30 is “++ (“++” means between 3 uM and 10 uM)”.

**Q.** For `CCOc1cc(F)ccc1-c1ccc(C(=O)NS(=O)(=O)c2cccnc2N)c(N2C[C@@H](C)CC2(C)C)n1` [Compound 1808, N-[(2-amino-3-pyridyl)sulfonyl]-6-(2-ethoxy-4-fluoro-phenyl)-2-[(4S)-2,2,4-trimethylpyrrolidin-1-yl]pyridine-3-carboxamide], which EC30 is on record?
**A.** The EC30 was “+++ (“+++” means <3 uM)”.
